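Interpolation was linear, between the two tested concentrations surrounding the appropriate level; five concentrations were tested over 48 hours in 96-well plates. GI50: concentration for 50% inhibition of growth.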 The source made the active and inactive calls. Cut-off read from the data, not from the text of the source: active = GI50 up to about 1.1 µM and inactive = higher.
Key:
Test in all cases: inhibition of tumour cell growth, NCI panel, 48 h
[1] = test system: UACC-257
[2] = test system: HT-29
[3] = test system: NCI-H23
[4] = test system: SF-539
[5] = test system: SK-MEL-2
[6] = test system: Malme-3M
[7] = test system: SNB-75
[8] = test system: SF-295
[9] = test system: LOX IMVI
[10] = test system: CAKI-1
[11] = test system: SN12C
[12] = test system: OVCAR-5
[13] = test system: MOLT-4
[14] = test system: DU-145
[15] = test system: MCF7
[16] = test system: M14
[17] = test system: HCC 2998
[18] = test system: CCRF-CEM
[19] = test system: 786-0
[20] = test system: SW-620
[21] = test system: SK-MEL-28
[22] = test system: BT-549
[23] = test system: KM12
[24] = test system: PC-3
[25] = test system: NCI-H460
[26] = test system: HOP-92
[27] = test system: ACHN
[28] = test system: A498
[29] = test system: A549
[30] = test system: NCI-H226
[31] = test system: COLO 205
[32] = test system: IGROV-1
[33] = test system: UACC-62
[34] = test system: SNB-19
[35] = test system: OVCAR-4
[36] = test system: EKVX
[37] = test system: U-251
[38] = test system: MDA-MB-435
[39] = test system: HL-60
[40] = test system: SK-OV-3
[41] = test system: HCT-116
[42] = test system: SF-268
[43] = test system: TK-10
[44] = test system: MDA-MB-231
[45] = test system: K562
[46] = test system: OVCAR-3
[47] = test system: HCT-15
[48] = test system: HOP-62
[49] = test system: T47D
[50] = test system: SK-MEL-5
[51] = test system: UO-31
[52] = test system: MDA-N
[53] = test system: OVCAR-8
[54] = test system: NCI/ADR-RES
[55] = test system: RPMI-8226
[56] = test system: Hs-578T
[57] = test system: NCI-H522
[58] = test system: RXF 393

Measured: GI50

CC(=O)NC1C(OCc2ccccc2)OC(CO)C(O)C1OCC(=O)N1CCCC1C(=O)N[C@@H](CCC(=O)NCCNCCNc1c2ccccc2nc2cccc([N+](=O)[O-])c12)C(N)=O (stereo partly drawn)
inactive: [1] 6.28 µM | [2] 1.46 µM | [3] 2.51 µM | [4] 3.27 µM | [5] 3.67 µM | [6] 2.57 µM | [7] 6.64 µM | [8] 5.33 µM | [9] 4.55 µM | [10] 1.94 µM | [11] 1.39 µM | [12] 6.81 µM | [13] 1.33 µM | [16] 2.92 µM | [17] 2.67 µM | [18] 1.69 µM | [19] 2.14 µM | [20] 1.31 µM | [21] 6.68 µM | [22] 4.82 µM | [23] 3.46 µM | [24] 2.94 µM | [26] 1.37 µM | [27] 2.11 µM | [29] 1.52 µM | [30] 5.6 µM | [31] 1.88 µM | [32] 2.56 µM | [33] 5.24 µM | [34] 5.5 µM | [35] 3.91 µM | [36] 7.57 µM | [37] 2.44 µM | [38] 2.65 µM | [39] 3.78 µM | [40] 10.4 µM | [42] 2.41 µM | [43] 4.27 µM | [44] 2.5 µM | [46] 5.65 µM | [48] 2.54 µM | [49] 5.78 µM | [50] 1.48 µM | [51] 3.75 µM | [52] 2.88 µM | [53] 2.19 µM | [54] 7.45 µM | [56] 3.89 µM | [57] 1.45 µM | [58] 2.17 µM
active: [14] 0.968 µM | [15] 0.724 µM | [25] 0.849 µM | [28] 1.04 µM | [41] 0.979 µM | [45] 0.655 µM | [55] 0.37 µM
2.11 µM: [47]

Cc1c(S(=O)(=O)N/C(=N\O)Nc2ccc(Cl)c(Cl)c2)sc2ccc(Cl)cc12
17.1 µM: [47]
inactive: [1] 19.9 µM | [2] 14.4 µM | [3] 17.8 µM | [4] 23 µM | [5] 18.9 µM | [6] 20.7 µM | [8] 16 µM | [9] 20.7 µM | [10] 18.5 µM | [11] 18.7 µM | [12] 21.6 µM | [13] 34.1 µM | [14] 18.8 µM | [15] 24.9 µM | [16] 21.5 µM | [17] 19.9 µM | [18] 26.8 µM | [19] 19.7 µM | [20] 39.4 µM | [21] 21.4 µM | [22] 17.7 µM | [23] 16.9 µM | [24] 18.6 µM | [26] 22.2 µM | [27] 12.1 µM | [28] 18.1 µM | [29] 24.7 µM | [30] 20.9 µM | [31] 17.9 µM | [32] 17.5 µM | [33] 17.7 µM | [34] 19.1 µM | [35] 15.1 µM | [36] 12.9 µM | [37] 21.3 µM | [38] 17.9 µM | [39] 26.7 µM | [41] 17.8 µM | [42] 24.8 µM | [43] 17.7 µM | [44] 23.8 µM | [45] 29.5 µM | [46] 14.5 µM | [48] 18.5 µM | [49] 14.4 µM | [50] 15.1 µM | [51] 20.3 µM | [52] 17.5 µM | [53] 21.9 µM | [54] 18.7 µM | [55] 34.7 µM | [56] 28.6 µM | [57] 15.9 µM | [58] 16.9 µM

Source: ChEMBL document CHEMBL1201862, “PubChem BioAssay data set” (2004)
